Laboratory results from PMC4339220 (2014).

Key:
[1] = system: TGGAGA cognate hairpin (biotinylated) (DNA, hairpin) CCTTGGAGAGTTTTCTCTCCAAGG; assay: SPR, global kinetic fit; conditions: 50 mM NaCl; 10 mM HEPES, 1 mM EDTA, pH 7.4, 0.05% P20, 25 °C
[2] = system: TGGAGA cognate hairpin (DNA, hairpin) CCTTGGAGAGTTTTCTCTCCAAGG; assay: UV melting; conditions: 50 mM NaCl; 10 mM HEPES, 1 mM EDTA, pH 7.4; 3 µM hairpin, 3 µM compound

Row | KD [1] [nM] | ΔTm [2] [°C] | Structure (SMILES)
1 | 12.1 ± 0.4 |  | CN(C)CCCNC(=O)CCNC(=O)c1cc(NC(=O)c2cc(NC(=O)c3cc(NC(=O)c4cc(NC(=O)CCCNC(=O)c5nc(NC(=O)CCNC(=O)c6nc(NC(=O)c7nccn7C)cn6C)cn5C)cn4C)cn3C)cn2C)cn1C
2 | 2.6 ± 0.2 | 8.0 | CN(CCCN)CCCNC(=O)CCNC(=O)c1cc(NC(=O)c2cc(NC(=O)CCNC(=O)c3cc(NC(=O)CCCNC(=O)c4nc(NC(=O)c5cc(NC(=O)c6nc(NC(=O)c7nccn7C)cn6C)cn5C)cn4C)cn3C)cn2C)cn1C
3 | 2.0 ± 0.2 |  | CN(CCCN)CCCNC(=O)CCNC(=O)c1cc(NC(=O)c2cc(NC(=O)c3cc(NC(=O)c4cc(NC(=O)CCCNC(=O)c5nc(NC(=O)c6cc(NC(=O)c7nc(NC(=O)c8nccn8C)cn7C)cn6C)cn5C)cn4C)cn3C)cn2C)cn1C
4 | 36.4 ± 0.4 |  | CN(C)CCCNC(=O)CCNC(=O)c1cc(NC(=O)CCNC(=O)c2cc(NC(=O)c3cc(NC(=O)CCCNC(=O)c4nc(NC(=O)c5cc(NC(=O)c6nc(NC(=O)c7nccn7C)cn6C)cn5C)cn4C)cn3C)cn2C)cn1C
5 | 18.6 ± 0.8 | 3.6 | CN(CCCN)CCCNC(=O)CCNC(=O)c1cc(NC(=O)c2cc(NC(=O)CCNC(=O)c3cc(NC(=O)CCCNC(=O)c4nc(NC(=O)CCNC(=O)c5nc(NC(=O)c6nccn6C)cn5C)cn4C)cn3C)cn2C)cn1C
6 | 26.3 ± 2.2 |  | CN(CCCN)CCCNC(=O)CCNC(=O)c1cc(NC(=O)CCNC(=O)c2cc(NC(=O)c3cc(NC(=O)CCCNC(=O)c4nc(NC(=O)CCNC(=O)c5nc(NC(=O)c6nccn6C)cn5C)cn4C)cn3C)cn2C)cn1C
7 | 2.5 ± 0.4 | 7.8 | CN(C)CCCNC(=O)CCNC(=O)c1cc(NC(=O)c2cc(NC(=O)c3cc(NC(=O)c4cc(NC(=O)CCCNC(=O)c5nc(NC(=O)c6cc(NC(=O)c7nc(NC(=O)c8nccn8C)cn7C)cn6C)cn5C)cn4C)cn3C)cn2C)cn1C
